This note sets out measurements from patent US11034658B2, “Pyridinyl pyrazoles as modulators of RORγT” (Janssen Pharmaceutica NV, priority 2018, dated 2021).

Assay [1] deals with full-length human RORγt (GAL4-DBD-RORγt fusion) in HEK293T cells (Homo sapiens (Human), UniProt P51449). The assay is described as follows: RORγt (full-length human) reporter assay, conditions A or B. Conditions: for IC50: HEK293T cells, read-out: RORγt (FL) Reporter Assay A or B, IC50; for inhibition at 3 µM / inhibition at 1 µM: HEK-293T, read-out: RORγt (FL) Reporter Assay A or B, % inhibition; for inhibition at 3 µM: 3 μM compound concentration (footnote *); for inhibition at 1 µM: 1 μM compound concentration (footnote ***). The format is cell-based. The procedure, abridged: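 HEK293T cells expressing GAL4-DBD-RORγt fusion (96- or 384-well formats, DMEM/10% FBS) exposed to compound overnight (16–20 h). Firefly luciferase normalized to DMSO and saturating reference compound, then to Renilla; IC50 from dose curve, % inhibition versus DMSO.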
On the technique in general: A reporter such as luciferase makes a cellular process visible.

Assay [2] concerns the target human RORγt ligand binding domain (RORγt LBD) (Homo sapiens (Human), UniProt P51449). The assay is described as follows: RORγt ThermoFluor assay.

Chain of human RORγt ligand binding domain (RORγt LBD) (P51449 other isoform, or with tags, fused parts or gaps): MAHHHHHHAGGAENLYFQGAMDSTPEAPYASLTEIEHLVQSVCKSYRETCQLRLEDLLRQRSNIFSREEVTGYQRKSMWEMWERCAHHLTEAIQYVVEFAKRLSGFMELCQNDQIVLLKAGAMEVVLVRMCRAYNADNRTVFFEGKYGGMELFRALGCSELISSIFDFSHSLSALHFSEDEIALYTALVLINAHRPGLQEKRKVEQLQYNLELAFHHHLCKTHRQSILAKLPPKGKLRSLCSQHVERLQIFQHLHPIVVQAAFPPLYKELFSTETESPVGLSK
Chain of full-length human RORγt (GAL4-DBD-RORγt fusion) in HEK293T cells (P51449 other isoform, or with tags, fused parts or gaps): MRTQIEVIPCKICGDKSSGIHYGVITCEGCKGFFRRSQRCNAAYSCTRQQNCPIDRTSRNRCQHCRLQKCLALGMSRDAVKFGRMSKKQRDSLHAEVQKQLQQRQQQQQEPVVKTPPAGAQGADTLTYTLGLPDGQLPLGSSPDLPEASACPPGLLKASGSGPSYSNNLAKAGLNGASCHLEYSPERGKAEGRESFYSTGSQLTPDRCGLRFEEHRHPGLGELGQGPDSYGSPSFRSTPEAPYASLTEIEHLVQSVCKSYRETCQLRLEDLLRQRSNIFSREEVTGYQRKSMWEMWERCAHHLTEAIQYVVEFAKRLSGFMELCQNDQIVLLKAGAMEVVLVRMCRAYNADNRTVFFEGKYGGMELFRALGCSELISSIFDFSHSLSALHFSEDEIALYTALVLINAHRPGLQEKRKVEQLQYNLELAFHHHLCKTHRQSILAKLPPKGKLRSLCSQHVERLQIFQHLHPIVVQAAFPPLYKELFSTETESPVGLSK

`CCn1nc(C(=O)NC[C@]2(O)CC[C@@H](S(C)(=O)=O)CC2)c(C)c1-c1cnc(CC(C)(C)C(F)(F)F)cc1C(F)F` [Example 28, 5-(4-(Difluoromethyl)-6-(3,3,3-trifluoro-2,2-dimethylpropyl)pyridin-3-yl)-1-ethyl-N-(((1s,4s)-1-hydroxy-4-(methylsulfonyl)cyclohexyl)methyl)-4-methyl-1H-pyrazole-3-carboxamide]: in assay [1], the IC50 was 2 nM and the inhibition at 3 µM amounted to 76%. The compound further returned a Kd in assay [2] of 97 nM.
The matching figures for `Cn1nc(C(=O)NC[C@H]2CC[C@H](S(C)(=O)=O)CC2)c(Cl)c1-c1cnc(CC(C)(C)C(F)(F)F)cc1OC(F)F` [Example 30, 4-Chloro-5-(4-(difluoromethoxy)-6-(3,3,3-trifluoro-2,2-dimethylpropyl)pyridin-3-yl)-1-methyl-N-(((1r,4r)-4-(methylsulfonyl)cyclohexyl)methyl)-1H-pyrazole-3-carboxamide]: 100 nM, 98% and 10 nM.
As for `Cc1c(C(=O)NC[C@H]2CC[C@H](S(C)(=O)=O)CC2)nn(C)c1-c1cnc(CC(C)(C)C(F)(F)F)cc1OC(F)F` [Example 31], in assay [1], the IC50 amounted to 160 nM and the inhibition at 1 µM was 100%. In assay [2], this compound yielded a Kd of 26 nM.
Turning to `CCn1nc(C(=O)NC[C@H]2CC[C@H](S(C)(=O)=O)CC2)c(Cl)c1-c1cnc(CCCC(F)(F)F)cc1OC(F)F` [Example 32, 4-Chloro-5-(4-(difluoromethoxy)-6-(4,4,4-trifluorobutyl)pyridin-3-yl)-1-ethyl-N-(((1r,4r)-4-(methylsulfonyl)cyclohexyl)methyl)-1H-pyrazole-3-carboxamide], in assay [1], the IC50 came out at 54 nM and the inhibition at 3 µM came out at 129%. Besides, the dissociation constant Kd in assay [2] is 18 nM.
With `CCn1nc(C(=O)NC[C@]2(O)CC[C@@H](S(C)(=O)=O)CC2)c(Cl)c1-c1cnc(CCCC(F)(F)F)cc1OC(F)F` [Example 33, 4-Chloro-5-(4-(difluoromethoxy)-6-(4,4,4-trifluorobutyl)pyridin-3-yl)-1-ethyl-N-(((1s,4s)-1-hydroxy-4-(methylsulfonyl)cyclohexyl)methyl)-1H-pyrazole-3-carboxamide], in assay [1], the IC50 worked out at 1100 nM and the inhibition at 3 µM worked out at 66%. The compound further returned a Kd in assay [2] of 62 nM.
For `CCn1nc(C(=O)NC[C@H]2CC[C@H](S(C)(=O)=O)CC2)c(C)c1-c1cnc(CCCC(F)(F)F)cc1OC(F)F` [Example 34, 5-(4-(Difluoromethoxy)-6-(4,4,4-trifluorobutyl)pyridin-3-yl)-1-ethyl-4-methyl-N-(((1r,4r)-4-(methylsulfonyl)cyclohexyl)methyl)-1H-pyrazole-3-carboxamide], in assay [1], the IC50 stood at 58 nM and the inhibition at 1 µM is 92%. For the same compound, in assay [2], the dissociation constant Kd is 34 nM.
For the compound `CCn1nc(C(=O)NC[C@]2(O)CC[C@@H](S(C)(=O)=O)CC2)c(C)c1-c1cnc(CCCC(F)(F)F)cc1OC(F)F` [Example 35, 5-(4-(Difluoromethoxy)-6-(4,4,4-trifluorobutyl)pyridin-3-yl)-1-ethyl-N-(((1s,4s)-1-hydroxy-4-(methylsulfonyl)cyclohexyl)methyl)-4-methyl-1H-pyrazole-3-carboxamide], in assay [1], the IC50 is 63 nM and the inhibition at 1 µM is 76%. Moreover, in assay [2], the Kd came to 100 nM.
Take `CCn1nc(C(=O)NC[C@]2(O)CC[C@@H](S(C)(=O)=O)CC2)c(Cl)c1-c1cnc(OCC(C)(C)C(F)(F)F)cc1OC` [Example 36, 4-Chloro-1-ethyl-N-(((1s,4s)-1-hydroxy-4-(methylsulfonyl)cyclohexyl)methyl)-5-(4-methoxy-6-(3,3,3-trifluoro-2,2-dimethylpropoxy)pyridin-3-yl)-1H-pyrazole-3-carboxamide]: in assay [1], the IC50 amounted to 33 nM and the inhibition at 3 µM came out at 104%. In assay [2], this compound gave a Kd of 20 nM.
On the same counts, the results for `CCn1nc(C(=O)NC[C@]2(O)CC[C@@H](S(C)(=O)=O)CC2)c(Cl)c1-c1cnc(CC(C)(C)C(F)F)cc1OC(F)F` [Example 38, 4-Chloro-5-(6-(3,3-difluoro-2,2-dimethylpropyl)-4-(difluoromethoxy)pyridin-3-yl)-1-ethyl-N-(((1s,4s)-1-hydroxy-4-(methylsulfonyl)cyclohexyl)methyl)-1H-pyrazole-3-carboxamide] are 220 nM, 88% and 15 nM.
The matching figures for `CCn1nc(C(=O)NC[C@H]2CC[C@H](S(C)(=O)=O)CC2)c(C)c1-c1cnc(CC(C)(C)C(F)F)cc1OC(F)F` [Example 41, 5-(6-(3,3-Difluoro-2,2-dimethylpropyl)-4-(difluoromethoxy)pyridin-3-yl)-1-ethyl-4-methyl-N-(((1r,4r)-4-(methylsulfonyl)cyclohexyl)methyl)-1H-pyrazole-3-carboxamide]: 45 nM, 102% and 6.9 nM.
On the same counts, the results for `CCn1nc(C(=O)NC[C@]2(O)CC[C@@H](S(C)(=O)=O)CC2)c(C)c1-c1cnc(CC(C)(C)C(F)F)cc1OC(F)F` [Example 42, 5-(6-(3,3-Difluoro-2,2-dimethylpropyl)-4-(difluoromethoxy)pyridin-3-yl)-1-ethyl-N-(((1s,4s)-1-hydroxy-4-(methylsulfonyl)cyclohexyl)methyl)-4-methyl-1H-pyrazole-3-carboxamide] are 430 nM, 95% and 35 nM.
As to `CCn1nc(C(=O)NC[C@H]2CC[C@H](S(C)(=O)=O)CC2)c(Cl)c1-c1ccc(CC(C)(C)C(F)(F)F)nc1OC(F)F` [Example 45, 4-Chloro-5-(2-(difluoromethoxy)-6-(3,3,3-trifluoro-2,2-dimethylpropyl)pyridin-3-yl)-1-ethyl-N-(((1r,4r)-4-(methylsulfonyl)cyclohexyl)methyl)-1H-pyrazole-3-carboxamide], in assay [1], the IC50 came out at 11 nM and the inhibition at 3 µM was 86%. The compound also gave a Kd in assay [2] of 0.35 nM.
The matching figures for `CCn1nc(C(=O)NC[C@]2(O)CC[C@@H](S(C)(=O)=O)CC2)c(Cl)c1-c1ccc(CC(C)(C)C(F)(F)F)nc1OC(F)F` [Example 46, 4-Chloro-5-(2-(difluoromethoxy)-6-(3,3,3-trifluoro-2,2-dimethylpropyl)pyridin-3-yl)-1-ethyl-N-(((1s,4s)-1-hydroxy-4-(methylsulfonyl)cyclohexyl)methyl)-1H-pyrazole-3-carboxamide]: 89 nM, 97% and 0.66 nM.
Consider `CCn1nc(C(=O)NC[C@H]2CC[C@H](S(C)(=O)=O)CC2)c(C)c1-c1ccc(CC(C)(C)C(F)(F)F)nc1OC(F)F` [Example 49, 5-(2-(Difluoromethoxy)-6-(3,3,3-trifluoro-2,2-dimethylpropyl)pyridin-3-yl)-1-ethyl-4-methyl-N-(((1r,4r)-4-(methylsulfonyl)cyclohexyl)methyl)-1H-pyrazole-3-carboxamide], for which, in assay [1], the IC50 stood at 6.4 nM and the inhibition at 3 µM came out at 106%. Moreover, in assay [2], the equilibrium dissociation constant (Kd) stood at 0.28 nM.
Regarding `CCn1nc(C(=O)NC[C@]2(O)CC[C@@H](S(C)(=O)=O)CC2)c(C)c1-c1ccc(CC(C)(C)C(F)(F)F)nc1OC(F)F` [Example 50, 5-(2-(Difluoromethoxy)-6-(3,3,3-trifluoro-2,2-dimethylpropyl)pyridin-3-yl)-1-ethyl-N-(((1s,4s)-1-hydroxy-4-(methylsulfonyl)cyclohexyl)methyl)-4-methyl-1H-pyrazole-3-carboxamide], in assay [1], the IC50 turned out to be 20 nM and the inhibition at 1 µM is 100%. This compound also yielded a Kd in assay [2] of 1.3 nM.
With `CCn1nc(C(=O)NC[C@H]2CC[C@H](S(C)(=O)=O)CC2)c(Cl)c1-c1ncc(CC(C)(C)C(F)(F)F)cc1OC(F)F` [Example 52, 4-Chloro-5-(3-(difluoromethoxy)-5-(3,3,3-trifluoro-2,2-dimethylpropyl)pyridin-2-yl)-1-ethyl-N-(((1r,4r)-4-(methylsulfonyl)cyclohexyl)methyl)-1H-pyrazole-3-carboxamide], in assay [1], the IC50 came out at 58 nM and the inhibition at 3 µM was determined as 85%. For the same compound, the Kd in assay [2] came to 4.7 nM.
The matching figures for `CCn1nc(C(=O)NC[C@]2(O)CC[C@@H](S(C)(=O)=O)CC2)c(Cl)c1-c1ncc(CC(C)(C)C(F)(F)F)cc1OC(F)F` [Example 53, 4-Chloro-5-(3-(difluoromethoxy)-5-(3,3,3-trifluoro-2,2-dimethylpropyl)pyridin-2-yl)-1-ethyl-N-(((1s,4s)-1-hydroxy-4-(methylsulfonyl)cyclohexyl)methyl)-1H-pyrazole-3-carboxamide]: 250 nM, 83% and 18 nM.
On the same counts, the results for `CCn1nc(C(=O)NC[C@H]2CC[C@H](S(C)(=O)=O)CC2)c(Cl)c1-c1cnc(CC(C)(C)C(F)(F)F)cc1C(C)(F)F` [Example 54, 4-Chloro-5-(4-(1,1-difluoroethyl)-6-(3,3,3-trifluoro-2,2-dimethylpropyl)pyridin-3-yl)-1-ethyl-N-(((1r,4r)-4-(methylsulfonyl)cyclohexyl)methyl)-1H-pyrazole-3-carboxamide] are 240 nM, 42% and 13 nM.

A word on the IC50: it is the point on the concentration scale where inhibition reaches its midpoint. The term inhibition denotes the drop in the measured response relative to a control, in per cent. As usually defined, the Kd is the equilibrium constant for the complex coming apart. A lower Kd goes with higher affinity.
